Data published in patent US9486536B2 (Immunomedics, Inc., priority 2013, dated 2016).

How the values were obtained:
[1] = system: HIV-1IIIB/MuLV infected splenocytes; assay: HIV-1/MuLV infected cell challenge in mice; format: in vivo; conditions: doses of 100-200 μg
Method: P4/D10-P2PDox is tested in vitro for its efficacy in eliminating HIV-1-infected cells among non-infected cells and in a mouse model by removing HIV-1/MuLV (murine leukemia virus) infected syngeneic cells from the intraperitoneal cavity.
A human T-cell line, CEM-1B, with a genetically integrated MuLV genome is infected with HIV-1IIIB, which leads to the production of pseudoviruses with the HIV-1 genome and the MuLV envelope (Adang et al., PNAS USA 1999, 96:12749-753; Hinkula et al., Cells Tissues Organs 2004, 177:169-184). These virus supernatants are used to infect splenocytes from C57B1/6×DBA F1 K^b/d mice transgenic for HLA-A201. Isogenic mice are challenged with HIV-1IIIB/MuLV infected splenocytes i.p. and are immediately given conjugated antibodies or free antibodies i.p. Ten days after challenge, mice are sacrificed and peritoneal cells collected. Peritoneal cells are pelleted and added to 1×10^6 HIV susceptible Jurkat T-cells or human PBMC grown in 24-well plates. From these secondary cultures, supernatant is removed and fresh medium added every 3-4 days. The amount of infectious HIV recovered in the supernatant is measured for 3 weeks by p24 ELISA.
To test the efficacy of P4/D10-P2PDox in vivo, mice are given isogeneic HIV/MuLV-infected cells together with conjugates intraperitoneally.

[2] = system: NCI-N87 human gastric carcinoma xenografts; assay: therapy of NCI-N87 xenografts in nude mice; format: in vivo; conditions: for mean tumor volume (mTV) on day 21: starting mTV 0.256 cm^3
Method: FIG. 3A. Therapy in nude mice bearing s.c. human tumor xenografts using 2.25 mg/kg protein dose (0.064 mg/kg of drug dose) of MAb-P2PDox conjugates twice weekly×2 weeks in nude mice (n=7) with NCI-N87 human gastric carcinoma xenografts.
Tumor size was determined by caliper measurements of length (L) and width (W) with tumor volume calculated as (L×W^2)/2. Tumors were measured and mice weighed twice a week. Mice were euthanized if their tumors reached >1 cm^3 in size, lost greater than 15% of their starting body weight, or otherwise became moribund. Statistical analysis for the tumor growth data was based on area under the curve (AUC) and survival time. Profiles of individual tumor growth were obtained through linear curve modeling. An f-test was employed to determine equality of variance between groups prior to statistical analysis of growth curves. A two-tailed t-test was used to assess statistical significance between all the various treatment groups and non-specific controls. For the saline control analysis a one-tailed t-test was used to assess significance. Survival studies were analyzed using Kaplan-Meier plots (log-rank analysis), using the Prism GraphPad Software (v4.03) software package (Advanced Graphics Software, Inc.; Encinitas, Calif.). All doses in preclinical experiments are expressed in antibody amounts. In terms of drug, 100 μg of antibody (5 mg/kg) in a 20-g mouse, for example, carries 1.4 μg-2.8 μg ([…]) of P2PDox equivalent dose when using an ADC with 3-6 drugs/IgG.
Using this dosing regimen, we examined the therapeutic effect of hRS7-P2PDox in 2 human tumor xenograft models, Capan-1 (pancreatic cancer) and NCI-N87 (gastric cancer). Therapy began 7 days after tumor transplantation in nude mice.
Anti-TROP-2 antibody conjugate, hRS7-P2PDox, was evaluated in nude mice bearing NCI-N87 human gastric cancer xenografts by administering a single bolus protein dose of 9 mg/kg, 6.75 mg/kg, 4.5 mg/kg, 2.25 mg/kg, or 1 mg/kg. The therapy was started when the mean tumor volume (mTV) was 0.256 cm^3.
Further in vivo efficacy studies were performed in nude mice implanted with NCI-N87 human gastric cancer xenografts (FIG. 13A-F).
The effect of varying dosage schedule on anti-tumor efficacy was examined (FIG. 14, FIG. 19A-G). The experiment began 9 days after tumor implantation when mean tumor volume for all groups was 0.383 cm^3, and ended on day 93 (84 days after initiation of therapy).

[3] = serum stability, HIC HPLC; format: in vitro ADME; conditions: human serum, 0.2 mg/mL, 37° C.
Method: Serum stability of prototypical P2PDox conjugate, hRS7-P2PDox, was determined by incubating in human serum at a concentration of 0.2 mg/mL at 37° C.

**Q.** With hRS7-P2PDox as the substance, how does the “protection by control conjugates” value [1] read?
**A.** None of the P2PDox-conjugated control antibodies (hLL1 or hRS7) provide any protection

**Q.** And the “mice alive at day 94” value ([2]; 45 μg q4dx4)?
**A.** 8 of 9

**Q.** What about the “mice alive at day 94” value ([2]; 90 μg weekly×2) of the same substance?
**A.** 9 of 9

**Q.** And the “effect of 2nd course of therapy” value ([2]; 2nd course administered after day 70)?
**A.** safely tolerated and led to further regressions of residual tumor

**Q.** And the “effect on tumors, one treatment cycle” value ([2]; 4×45 μg)?
**A.** rapidly regressed all tumors

**Q.** What about the “effect of second treatment cycle” value ([2]; second cycle about 2 months after the end of the first cycle) of the same substance?
**A.** complete regression of all but one

**Q.** What about the minimum effective dose ([2]; single bolus protein dose) of the same substance?
**A.** 2.25 mg/kg

**Q.** What about the “mean tumor volume (mTV) on day 21” value ([2]; single bolus protein dose 2.25 mg/kg) of the same substance?
**A.** 0.567±0.179 cm^3

**Q.** And the “mean tumor volume (mTV) on day 21” value ([2]; single bolus protein dose 4.5 mg/kg)?
**A.** 0.264±0.087 cm^3

**Q.** What about the “mean tumor volume (mTV) on day 21” value ([2]; single bolus protein dose 9 mg/kg) of the same substance?
**A.** 0.211±0.042 cm^3

**Q.** What about the “minimum single dose for significant survival benefit compared to saline control” value ([2]; single dose) of the same substance?
**A.** 45 µg

**Q.** And the “single dose giving maximum effect on tumor growth” value ([2]; single dose)?
**A.** ≥ 90 µg

**Q.** What about the “mice alive at day 94” value ([2]; single dose of 180 μg) of the same substance?
**A.** 78 of 9

**Q.** What about the “release of free drug from the conjugate” value [3] of the same substance?
**A.** no release of free drug
